Results reported in patent publication US8791107B2, “N-substituted oxazinopteridines and oxazinopteridinones” (Takeda Pharmaceutical Company Limited, priority 2011, dated 2014).

Target: T1, PI3Kδ (Homo sapiens, UniProt O00329)
T1 construct: The protein is full length and co-expressed with untagged PIK3R1; GST; purchased Invitrogen PV5274
Test: PI3Kδ inhibition, modified PIK3CD Adapta TR-FRET assay
Format: biochemical
Conditions: recombinant GST-tagged full length PIK3CD co-expressed with PIK3R1 (p85α); 2 μM ATP, 50 μM PIP2; read-out: PI3Kδ Inhibition (pIC50) (converted)
Description: The activity of compounds as PI3Kδ inhibitors may be determined by a variety of methods, including in vitro and in vivo methods. The following in vitro assay measures a test compound's ability to inhibit PI3Kδ-mediated phosphorylation of PIP2 and ATP.
Recombinant GST-tagged PIK3CD is purchased from Invitrogen (Part Number: PV5274). The protein is full length and co-expressed with untagged PIK3R1, phosphoinositide-3-kinase regulatory subunit 1 (p85α). The protein is stored at −20° C. in 50 mM TRIS (pH 7.5), 150 mM NaCl, 0.5 mM EDTA, 0.02% Triton® X-100, 2 mM DTT, and 50% glycerol.
A modified PIK3CD Adapta® assay (Invitrogen, Carlsbad, Calif.) is used to measure PI3Kδ inhibition of the example compounds. The assay has two phases. In the first phase, kinase reaction components, which include the enzyme (PIK3CD), substrates (PIP2, ATP), test compound (inhibitor), and assay buffer are added to each well, and the reaction is allowed to incubate for a pre-determined period of time. […] In the presence of the inhibitor, the amount of ADP formed by the kinase reaction is reduced, and the resulting intact antibody-tracer interaction maintains a high TR-FRET signal.
The reaction buffer contains 50 mM Hepes (pH 7.5), 3 mM MgCl2, 1 mM EGTA, 100 mM NaCl, 0.03% CHAPS; 2 mM DTT is added fresh prior to each experiment. […] Next, test compounds (2 μL) from a source plate (5% dilution plate) are introduced into the wells. The final DMSO concentration in each assay well is 1%. […] Other wells contain test compounds serially diluted across the plate 11 times for a total of 12 data points. The kinase reactions are carried out at room temperature and are initiated by the addition of 4 μL of solution containing 2 μM ATP and 50 μM PIP2. […] This emission signal is referenced or “ratioed” to the emission from Eu at 620 nm. […] The percent inhibition for a given inhibitor concentration is computed from % conversion for the reaction and for the positive and negative controls.

T1 sequence (O00329 whole entry): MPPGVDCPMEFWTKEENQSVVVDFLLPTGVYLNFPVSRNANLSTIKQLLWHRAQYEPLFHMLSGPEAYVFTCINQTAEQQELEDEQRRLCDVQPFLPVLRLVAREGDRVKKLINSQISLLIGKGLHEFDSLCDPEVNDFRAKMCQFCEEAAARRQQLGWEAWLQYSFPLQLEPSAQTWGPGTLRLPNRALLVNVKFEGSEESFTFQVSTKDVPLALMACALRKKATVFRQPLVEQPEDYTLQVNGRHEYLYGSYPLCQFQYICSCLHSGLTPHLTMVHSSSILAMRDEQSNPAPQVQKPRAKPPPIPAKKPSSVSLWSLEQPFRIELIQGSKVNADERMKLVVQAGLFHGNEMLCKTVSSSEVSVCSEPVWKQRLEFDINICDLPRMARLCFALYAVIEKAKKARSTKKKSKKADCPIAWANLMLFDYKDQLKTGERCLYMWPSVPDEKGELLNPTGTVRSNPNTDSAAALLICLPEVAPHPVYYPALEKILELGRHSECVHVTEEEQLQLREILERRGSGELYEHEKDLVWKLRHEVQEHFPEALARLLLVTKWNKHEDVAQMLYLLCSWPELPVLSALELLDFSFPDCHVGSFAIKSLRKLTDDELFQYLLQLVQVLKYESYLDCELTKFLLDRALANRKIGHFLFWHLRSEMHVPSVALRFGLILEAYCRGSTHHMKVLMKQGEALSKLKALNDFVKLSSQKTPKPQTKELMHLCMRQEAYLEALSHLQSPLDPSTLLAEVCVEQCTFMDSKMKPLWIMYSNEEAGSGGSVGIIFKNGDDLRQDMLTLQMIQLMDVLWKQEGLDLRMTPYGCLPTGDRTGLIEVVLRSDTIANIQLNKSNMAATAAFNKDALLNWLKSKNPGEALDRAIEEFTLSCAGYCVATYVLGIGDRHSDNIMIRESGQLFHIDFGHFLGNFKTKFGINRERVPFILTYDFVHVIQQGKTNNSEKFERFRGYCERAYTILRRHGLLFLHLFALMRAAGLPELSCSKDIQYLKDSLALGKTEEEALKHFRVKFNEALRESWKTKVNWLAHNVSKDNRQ
T1 sequence (P27986 whole entry partner): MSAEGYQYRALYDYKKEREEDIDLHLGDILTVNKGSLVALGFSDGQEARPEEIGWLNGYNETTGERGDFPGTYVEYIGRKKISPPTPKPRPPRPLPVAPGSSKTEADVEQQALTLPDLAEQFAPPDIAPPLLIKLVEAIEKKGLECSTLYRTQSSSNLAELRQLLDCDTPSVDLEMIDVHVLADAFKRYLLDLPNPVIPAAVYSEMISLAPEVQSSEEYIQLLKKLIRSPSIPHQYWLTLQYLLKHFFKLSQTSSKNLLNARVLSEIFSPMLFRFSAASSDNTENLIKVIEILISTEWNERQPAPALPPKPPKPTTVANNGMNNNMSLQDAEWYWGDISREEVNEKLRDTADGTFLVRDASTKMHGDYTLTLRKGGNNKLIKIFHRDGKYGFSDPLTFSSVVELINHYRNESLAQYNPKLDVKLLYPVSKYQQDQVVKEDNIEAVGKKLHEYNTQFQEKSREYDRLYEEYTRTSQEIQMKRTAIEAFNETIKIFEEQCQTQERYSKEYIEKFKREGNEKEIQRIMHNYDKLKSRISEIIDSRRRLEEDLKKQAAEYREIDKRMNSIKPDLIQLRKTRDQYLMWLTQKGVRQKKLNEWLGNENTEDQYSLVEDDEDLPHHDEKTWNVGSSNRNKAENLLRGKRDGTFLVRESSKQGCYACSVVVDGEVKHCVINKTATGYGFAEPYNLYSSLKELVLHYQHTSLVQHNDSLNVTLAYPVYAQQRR

Row | SMILES | IC50 [nM]
1 | CS(=O)(=O)c1ccc(CN2CC3COCCN3c3nc(-c4cnc5[nH]ccc5c4)ncc32)cc1 (stereo not shown) [Example 25, 5-(4-(methylsulfonyl)benzyl)-2-(1H-pyrrolo[2,3-b]pyridin-5-yl)-5,6,6a,7,9,10-hexahydro-[1,4]oxazino[3,4-h]pteridine] | 158
2 | Cc1nc(-c2cccc3[nH]ccc23)nc2c1N(Cc1ccc(S(C)(=O)=O)cc1)CC1COCCN21 (stereo not shown) [Example 26, 2-(1H-indol-4-yl)-4-methyl-5-(4-(methylsulfonyl)benzyl)-5,6,6a,7,9,10-hexahydro-[1,4]oxazino[3,4-h]pteridine] | 251
3 | Cc1nc(-c2cccc3[nH]ccc23)nc2c1N(CC1CC1)CC1COCCN21 (stereo not shown) [Example 27, 5-(cyclopropylmethyl)-2-(1H-indol-4-yl)-4-methyl-5,6,6a,7,9,10-hexahydro-[1,4]oxazino[3,4-h]pteridine] | 251
4 | CS(=O)(=O)c1ccc(CN2C[C@H]3COCCN3c3nc(-c4cccc5[nH]ccc45)ncc32)cc1 [Example 28, (S)-2-(1H-indol-4-yl)-5-(4-(methylsulfonyl)benzyl)-5,6,6a,7,9,10-hexahydro-[1,4]oxazino[3,4-h]pteridine] | 631
5 | CS(=O)(=O)c1ccc(CN2C[C@@H]3COCCN3c3nc(-c4cccc5[nH]ccc45)ncc32)cc1 [Example 29, (R)-2-(1H-indol-4-yl)-5-(4-(methylsulfonyl)benzyl)-5,6,6a,7,9,10-hexahydro-[1,4]oxazino[3,4-h]pteridine] | 5.01
6 | CS(=O)(=O)c1ccc(CN2C[C@@H]3COCCN3c3nc(-c4cncc5[nH]ccc45)ncc32)cc1 [Example 30, (R)-5-(4-(methylsulfonyl)benzyl)-2-(1H-pyrrolo[2,3-c]pyridin-4-yl)-5,6,6a,7,9,10-hexahydro-[1,4]oxazino[3,4-h]pteridine] | 1.26
7 | CCc1nnc(CN2C[C@@H]3COCCN3c3nc(-c4cccc5[nH]ccc45)ncc32)o1 [Example 31, (R)-5-((5-ethyl-1,3,4-oxadiazol-2-yl)methyl)-2-(1H-indol-4-yl)-5,6,6a,7,9,10-hexahydro-[1,4]oxazino[3,4-h]pteridine] | 7.94
8 | c1ccc(OCCN2CC3COCCN3c3nc(-c4cccc5[nH]ccc45)ncc32)cc1 (stereo not shown) [Example 32, 2-(1H-indol-4-yl)-5-(2-phenoxyethyl)-5,6,6a,7,9,10-hexahydro-[1,4]oxazino[3,4-h]pteridine] | 79.4
9 | c1csc(-c2nnc(CN3CC4COCCN4c4nc(-c5cccc6[nH]ccc56)ncc43)o2)c1 (stereo not shown) [Example 33, 2-(1H-indol-4-yl)-5-((5-(thiophen-2-yl)-1,3,4-oxadiazol-2-yl)methyl)-5,6,6a,7,9,10-hexahydro-[1,4]oxazino[3,4-h]pteridine] | 12.6
10 | O=C(CCN1CC2COCCN2c2nc(-c3cccc4[nH]ccc34)ncc21)NCc1ccco1 (stereo not shown) [Example 34, 3-(2-(1H-indol-4-yl)-6a,7,9,10-tetrahydro-[1,4]oxazino[3,4-h]pteridin-5(6H)-yl)-N-(furan-2-ylmethyl)propanamide] | 12.6
11 | CCc1nnc(CN2CC3COCCN3c3nc(-c4cccc5[nH]ccc45)ncc32)o1 (stereo not shown) [Example 35, 5-((5-ethyl-1,3,4-oxadiazol-2-yl)methyl)-2-(1H-indol-4-yl)-5,6,6a,7,9,10-hexahydro-[1,4]oxazino[3,4-h]pteridine] | 10
12 | c1cc(-c2ncc3c(n2)N2CCOCC2CN3Cc2nnnn2C2CC2)c2cc[nH]c2c1 (stereo not shown) [Example 36, 5-((1-cyclopropyl-1H-tetrazol-5-yl)methyl)-2-(1H-indol-4-yl)-5,6,6a,7,9,10-hexahydro-[1,4]oxazino[3,4-h]pteridine] | 126
13 | c1ccc(-c2nc(CN3CC4COCCN4c4nc(-c5cccc6[nH]ccc56)ncc43)co2)cc1 (stereo not shown) [Example 37, 2-(1H-indol-4-yl)-5-((2-phenyloxazol-4-yl)methyl)-5,6,6a,7,9,10-hexahydro-[1,4]oxazino[3,4-h]pteridine] | 316
14 | c1ccc(-c2nnc(CN3CC4COCCN4c4nc(-c5cccc6[nH]ccc56)ncc43)o2)cc1 (stereo not shown) [Example 38, 2-(1H-indol-4-yl)-5-((5-phenyl-1,3,4-oxadiazol-2-yl)methyl)-5,6,6a,7,9,10-hexahydro-[1,4]oxazino[3,4-h]pteridine] | 12.6
15 | c1cc(-c2ncc3c(n2)N2CCOCC2CN3Cc2ncco2)c2cc[nH]c2c1 (stereo not shown) [Example 39, 2-(1H-indol-4-yl)-5-(oxazol-2-ylmethyl)-5,6,6a,7,9,10-hexahydro-[1,4]oxazino[3,4-h]pteridine] | 20
16 | c1ccc(-n2cc(CN3CC4COCCN4c4nc(-c5cccc6[nH]ccc56)ncc43)nn2)cc1 (stereo not shown) [Example 40] | 15.8

Row | SMILES | IC50 [nM]
17 | Cc1ccccc1CNC(=O)CN1CC2COCCN2c2nc(-c3cccc4[nH]ccc34)ncc21 (stereo not shown) [Example 41, 2-(2-(1H-indol-4-yl)-6a,7,9,10-tetrahydro-[1,4]oxazino[3,4-h]pteridin-5(6H)-yl)-N-(2-methylbenzyl)acetamide] | 31.6
18 | CC(C)NC(=O)CN1CC2COCCN2c2nc(-c3cccc4[nH]ccc34)ncc21 (stereo not shown) [Example 42, 2-(2-(1H-indol-4-yl)-6a,7,9,10-tetrahydro-[1,4]oxazino[3,4-h]pteridin-5(6H)-yl)-N-isopropylacetamide] | 501
19 | CN(C)C(=O)CN1CC2COCCN2c2nc(-c3cccc4[nH]ccc34)ncc21 (stereo not shown) [Example 43, 2-(2-(1H-indol-4-yl)-6a,7,9,10-tetrahydro-[1,4]oxazino[3,4-h]pteridin-5(6H)-yl)-N,N-dimethylacetamide] | 398
20 | CC(C)N(C)C(=O)CN1CC2COCCN2c2nc(-c3cccc4[nH]ccc34)ncc21 (stereo not shown) [Example 44, 2-(2-(1H-indol-4-yl)-6a,7,9,10-tetrahydro-[1,4]oxazino[3,4-h]pteridin-5(6H)-yl)-N-isopropyl-N-methylacetamide] | 316
21 | N#Cc1ccccc1CN1CC2COCCN2c2nc(-c3cccc4[nH]ccc34)ncc21 (stereo not shown) [Example 45, 2-((2-(1H-indol-4-yl)-6a,7,9,10-tetrahydro-[1,4]oxazino[3,4-h]pteridin-5(6H)-yl)methyl)benzonitrile] | 251
22 | N#Cc1ccc(F)cc1CN1CC2COCCN2c2nc(-c3cccc4[nH]ccc34)ncc21 (stereo not shown) [Example 46, 2-((2-(1H-indol-4-yl)-6a,7,9,10-tetrahydro-[1,4]oxazino[3,4-h]pteridin-5(6H)-yl)methyl)-4-fluorobenzonitrile] | 316
23 | COc1cc(C#N)ccc1CN1CC2COCCN2c2nc(-c3cccc4[nH]ccc34)ncc21 (stereo not shown) [Example 47, 4-((2-(1H-indol-4-yl)-6a,7,9,10-tetrahydro-[1,4]oxazino[3,4-h]pteridin-5(6H)-yl)methyl)-3-methoxybenzonitrile] | 158
24 | O=C(Cc1ccccc1)N1CC2COCCN2c2nc(-c3cccc4[nH]ccc34)ncc21 (stereo not shown) [Example 48, 1-(2-(1H-indol-4-yl)-6a,7,9,10-tetrahydro-[1,4]oxazino[3,4-h]pteridin-5(6H)-yl)-2-phenylethanone] | 251
25 | O=C(Cc1cccs1)N1CC2COCCN2c2nc(-c3cccc4[nH]ccc34)ncc21 (stereo not shown) [Example 49, 1-(2-(1H-indol-4-yl)-6a,7,9,10-tetrahydro-[1,4]oxazino[3,4-h]pteridin-5(6H)-yl)-2-(thiophen-2-yl)ethanone] | 200
26 | COc1cccc(CC(=O)N2CC3COCCN3c3nc(-c4cccc5[nH]ccc45)ncc32)c1 (stereo not shown) [Example 50, 1-(2-(1H-indol-4-yl)-6a,7,9,10-tetrahydro-[1,4]oxazino[3,4-h]pteridin-5(6H)-yl)-2-(3-methoxyphenyl)ethanone] | 316
27 | O=C(Cc1ccsc1)N1CC2COCCN2c2nc(-c3cccc4[nH]ccc34)ncc21 (stereo not shown) [Example 51, 1-(2-(1H-indol-4-yl)-6a,7,9,10-tetrahydro-[1,4]oxazino[3,4-h]pteridin-5(6H)-yl)-2-(thiophen-3-yl)ethanone] | 251
28 | O=C(Cc1coc2ccccc12)N1CC2COCCN2c2nc(-c3cccc4[nH]ccc34)ncc21 (stereo not shown) [Example 52, 1-(2-(1H-indol-4-yl)-6a,7,9,10-tetrahydro-[1,4]oxazino[3,4-h]pteridin-5(6H)-yl)-2-(benzofuran-3-yl)ethanone] | 398
29 | O=C(OCc1ccccc1)N1CC2COCCN2c2nc(-c3cccc4[nH]ccc34)ncc21 (stereo not shown) [Example 53, benzyl 2-(1H-indol-4-yl)-6a,7,9,10-tetrahydro-[1,4]oxazino[3,4-h]pteridine-5(6H)-carboxylate] | 251
30 | O=C(Cc1c(F)cccc1F)N1CC2COCCN2c2nc(-c3cccc4[nH]ccc34)ncc21 (stereo not shown) [Example 54] | 501
31 | CC(=O)N1CC2COCCN2c2nc(-n3c(C(F)F)nc4ccccc43)ncc21 (stereo not shown) [Example 55, 1-(2-(2-(difluoromethyl)-1H-benzo[c]imidazol-1-yl)-6a,7,9,10-tetrahydro-[1,4]oxazino[3,4-h]pteridin-5(6H)-yl)ethanone] | 631
